This is an account of results in patent US20260028354A1, “TETRAHYDRONAPHTHALENE DERIVATIVES AS ESTROGEN RECEPTOR DEGRADERS” (REGENT OF THE UNIVERSITY OF MICHIGAN, priority 2022, published 2026).

Broadly, the IC50 is the midpoint of a concentration-inhibition curve. As usually defined, the DC50 is the concentration giving 50% degradation.

A short description of assay [1]: Cell growth assay (WST-8) for "B" compounds. In kind it is cell-based. The settings on record: read-out: Cell growth Inhibition in T47D cell line IC50. On the procedure: Cell Growth Assay. The cells were seeded at 1500/well in 96 well plates overnight. One day after the seeding, they were treated with indicated doses of compounds respectively, 4 days after the compound treatment, 10% WST-8 reagent was added to the culture medium and incubate in a CO2 incubator at 37° C. for 2.5 hours. Before reading, the plate was mixed gently on an orbital shaker for one minute to ensure homogeneous distribution of color. The absorbance was measured of each sample using a microplate reader at a wavelength of 450 nm. The relative absorbance was calculated against the vehicle control from three individually repeats.
On the technique in general: Tetrazolium dyes change colour on reduction, which living cells bring about.

Assay [2] in a line: Western blot analysis for "B" compounds. Format: cell-based. As to conditions: read-out: Traditional Western Degradation Potency (DC50). A digest of the protocol:
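Target protein levels given as relative mean band intensity over GAPDH from scanned immunoblots. Lysates of treated cells in RIPA buffer, equalized by BCA, separated on 10% gels and transferred to PVDF.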

Structures are written as SMILES. Like-named read-outs stand apart in the source and are kept apart here.

Regarding `O=C1CCC(N2C(=O)c3cc4c(cc3C2=O)CN(CC2CCN(C(=O)C3CCN(c5ccc([C@@H]6c7ccc(O)cc7CC[C@@H]6c6ccccc6)cc5)CC3)CC2)C4)C(=O)N1` (stereo partly drawn) [Compound B56, 2-(2,6-dioxopiperidin-3-yl)-6-((1-(1-(4-((1R,2S)-6-hydroxy-2-phenyl-1,2,3,4-tetrahydronaphthalen-1-yl)phenyl)piperidine-4-carbonyl)piperidin-4-yl)methyl)-6,7-dihydropyrrolo[3,4-f]isoindole-1,3(2H,5H)-dione], the IC50 in assay [1] (T47D, T47D cell line) lay within 1 to 10 nM. Also, the DC50 in assay [2] was in the range of 10 to 100 nM. `C[C@H]1CC2(CCN(c3ccc([C@@H]4c5ccc(O)cc5CC[C@@H]4c4ccccc4)cc3)CC2)CN1CC(=O)N1Cc2cc3c(cc2C1)C(=O)N(C1CCC(=O)NC1=O)C3=O` (mixture of isomers) [Compound B30, 2-(2,6-dioxopiperidin-3-yl)-6-(2-((S)-8-(4-((1R,2S)-6-hydroxy-2-phenyl-1,2,3,4-tetrahydronaphthalen-1-yl)phenyl)-3-methyl-2,8-diazaspiro[4.5]decan-2-yl)acetyl)-6,7-dihydropyrrolo[3,4-f]isoindole-1,3(2H,5H)-dione]: the IC50 in assay [1] (T47D, T47D cell line) is more than 10 nM. The DC50 in assay [2] is more than 100 nM. Regarding `O=C1CCC(N2Cc3c(ccc4c3OC[C@@H]3CN(C(=O)CN5CCN(c6ccc([C@@H]7c8ccc(O)cc8CC[C@@H]7c7ccccc7)cc6)CC5)CCN43)C2=O)C(=O)N1` (stereo partly drawn) [Compound B244, 3-((S)-7-(2-(4-(4-((1R,2S)-6-hydroxy-2-phenyl-1,2,3,4-tetrahydronaphthalen-1-yl)phenyl)piperazin-1-yl)acetyl)-1-oxo-1,3,5,5a,6,7,8,9-octahydro-2H-pyrazino[1′,2′:4,5][1,4]oxazino[2,3-e]isoindol-2-yl)piperidine-2,6-dione], the IC50 in assay [1] (T47D) was less than 1 nM. On to `O=C1CC[C@H](N2Cc3c(ccc4c3OC[C@H]3CN(C[C@@H]5COC6(CCN(c7ccc([C@@H]8c9ccc(O)cc9CC[C@@H]8c8ccccc8)cc7)CC6)C5)CCN43)C2=O)C(=O)N1` [Compound B396, (S)-3-((R)-7-(((R)-8-(4-((1R,2S)-6-hydroxy-2-phenyl-1,2,3,4-tetrahydronaphthalen-1-yl)phenyl)-1-oxa-8-azaspiro[4.5]decan-3-yl)methyl)-1-oxo-1,3,5,5a,6,7,8,9-octahydro-2H-pyrazino[1′,2′:4,5][1,4]oxazino[2,3-e]isoindol-2-yl)piperidine-2,6-dione], for which, in assay [1] (T47D), the IC50 was less than 1 nM.

As to `O=C1CCC(N2C(=O)c3cc4c(cc3C2=O)CN(CC(=O)N2CCC3(CC2)CCN(c2ccc([C@@H]5c6ccc(O)cc6CC[C@@H]5C5CCCCC5)cc2)CC3)C4)C(=O)N1` (mixture of isomers) [Compound B47, 6-(2-(9-(4-((1R,2R)-2-cyclohexyl-6-hydroxy-1,2,3,4-tetrahydronaphthalen-1-yl)phenyl)-3,9-diazaspiro[5.5]undecan-3-yl)-2-oxoethyl)-2-(2,6-dioxopiperidin-3-yl)-6,7-dihydropyrrolo[3,4-f]isoindole-1,3(2H,5H)-dione], the concentration for half-maximal inhibition (IC50) in assay [1] (T47D, T47D cell line) lay within 1 to 10 nM. Further, the DC50 in assay [2] lay in the range of 10 to 100 nM.

For `O=C1CCC(N2C(=O)c3cc4c(cc3C2=O)CN(CC(=O)N2CC3(CCN(c5ccc([C@@H]6c7ccc(O)cc7CC[C@@H]6c6ccccc6)cc5)CC3)C2)C4)C(=O)N1` (mixture of isomers) [Compound B5, 2-(2,6-dioxopiperidin-3-yl)-6-(2-(7-(4-((1R,2S)-6-hydroxy-2-phenyl-1,2,3,4-tetrahydronaphthalen-1-yl)phenyl)-2,7-diazaspiro[3.5]nonan-2-yl)-2-oxoethyl)-6,7-dihydropyrrolo[3,4-f]isoindole-1,3(2H,5H)-dione], the IC50 in assay [1] (T47D cell line) was more than 10 nM. In addition, in assay [2], the DC50 is less than 10 nM.

As to `O=C1CC[C@H](N2Cc3c(ccc4c3OC[C@H]3CN(C[C@H]5COC6(CCN(c7ccc([C@@H]8c9ccc(O)cc9CC[C@@H]8c8ccccc8)cc7)CC6)C5)CCN43)C2=O)C(=O)N1` [Compound B397, (S)-3-((R)-7-(((S)-8-(4-((1R,2S)-6-hydroxy-2-phenyl-1,2,3,4-tetrahydronaphthalen-1-yl)phenyl)-1-oxa-8-azaspiro[4.5]decan-3-yl)methyl)-1-oxo-1,3,5,5a,6,7,8,9-octahydro-2H-pyrazino[1′,2′:4,5][1,4]oxazino[2,3-e]isoindol-2-yl)piperidine-2,6-dione], the IC50 in assay [1] (T47D) was less than 1 nM. With `O=C1CCC(N2C(=O)c3cc4c(cc3C2=O)CN(CC(=O)N2CC3(CCN(c5ccc([C@@H]6c7ccc(O)cc7CC[C@@H]6c6ccccc6)cc5)CC3)C2)C4)C(=O)N1` (stereo partly drawn) [Compound B28, 2-(2,6-dioxopiperidin-3-yl)-6-(2-(7-(4-((1R,2S)-6-hydroxy-2-phenyl-1,2,3,4-tetrahydronaphthalen-1-yl)phenyl)-2,7-diazaspiro[3.5]nonan-2-yl)-2-oxoethyl)-6,7-dihydropyrrolo[3,4-f]isoindole-1,3(2H,5H)-dione], the 50% inhibitory concentration (IC50) in assay [1] (T47D cell line) fell in the range of 1 to 10 nM. Moreover, in assay [2], the DC50 was less than 10 nM. On to `O=C1CCC(N2C(=O)c3cc4c(cc3C2=O)CN(CC(=O)N2CC3(CCN(c5ccc([C@@H]6c7ccc(O)cc7CC[C@@H]6c6ccccc6)c(F)c5)CC3)C2)C4)C(=O)N1` (mixture of isomers) [Compound B44, 2-(2,6-dioxopiperidin-3-yl)-6-(2-(7-(3-fluoro-4-((1S,2S)-6-hydroxy-2-phenyl-1,2,3,4-tetrahydronaphthalen-1-yl)phenyl)-2,7-diazaspiro[3.5]nonan-2-yl)-2-oxoethyl)-6,7-dihydropyrrolo[3,4-f]isoindole-1,3(2H,5H)-dione], for which the concentration for half-maximal inhibition (IC50) in assay [1] (T47D, T47D cell line) is more than 10 nM. For the same compound, in assay [2], the DC50 was in the range of 10 to 100 nM. Regarding `O=C1CC[C@H](N2Cc3c(ccc4c3OC[C@H]3CN(CC5COC6(CCN(c7ccc([C@@H]8c9ccc(O)cc9CC[C@@H]8c8ccccc8)cc7)CC6)C5)CCN43)C2=O)C(=O)N1` (stereo partly drawn) [Compound B226, (3S)-3-((5aR)-7-((8-(4-((1R,2S)-6-hydroxy-2-phenyl-1,2,3,4-tetrahydronaphthalen-1-yl)phenyl)-1-oxa-8-azaspiro[4.5]decan-3-yl)methyl)-1-oxo-1,3,5,5a,6,7,8,9-octahydro-2H-pyrazino[1′,2′: 4,5][1,4]oxazino[2,3-e]isoindol-2-yl)piperidine-2,6-dione], the IC50 in assay [1] (T47D) is less than 1 nM. As to `O=C1CCC(N2C(=O)c3cc4c(cc3C2=O)CN(CC(=O)N2CCC3(CC2)CCN(c2ccc([C@@H]5c6ccc(O)cc6CCC56CCCC6)cc2)CC3)C4)C(=O)N1` (stereo in doubt) [Compound B49, 2-(2,6-dioxopiperidin-3-yl)-6-(2-(9-(4-(6'-hydroxy-3',4'-dihydro-1'H-spiro[cyclopentane-1,2'-naphthalen]-1'-yl)phenyl)-3,9-diazaspiro[5.5]undecan-3-yl)-2-oxoethyl)-6,7-dihydropyrrolo[3,4-f]isoindole-1,3(2H,5H)-dione], the IC50 in assay [1] (T47D, T47D cell line) fell in the range of 1 to 10 nM. Further, the DC50 in assay [2] was in the range of 10 to 100 nM.

With `O=C1CCC(N2C(=O)c3cc4c(cc3C2=O)CN(CC(=O)N2CCC3(CC2)CCN(c2cc(F)c([C@@H]5c6ccc(O)cc6CC[C@@H]5c5ccccc5)c(F)c2)CC3)C4)C(=O)N1` (mixture of isomers) [Compound B46, 6-(2-(9-(3,5-difluoro-4-((1S,2S)-6-hydroxy-2-phenyl-1,2,3,4-tetrahydronaphthalen-1-yl)phenyl)-3,9-diazaspiro[5.5]undecan-3-yl)-2-oxoethyl)-2-(2,6-dioxopiperidin-3-yl)-6,7-dihydropyrrolo[3,4-f]isoindole-1,3(2H,5H)-dione], the IC50 in assay [1] (T47D, T47D cell line) was more than 10 nM. For the same compound, the DC50 in assay [2] is more than 100 nM. As for `O=C1CCC(N2C(=O)c3cc4c(cc3C2=O)CN(CC(=O)N2CC3(CCN(c5ccc([C@@H]6c7ccc(O)cc7CC[C@@H]6c6ccccc6)cc5F)CC3)C2)C4)C(=O)N1` (mixture of isomers) [Compound B43, 2-(2,6-dioxopiperidin-3-yl)-6-(2-(7-(2-fluoro-4-((1R,2S)-6-hydroxy-2-phenyl-1,2,3,4-tetrahydronaphthalen-1-yl)phenyl)-2,7-diazaspiro[3.5]nonan-2-yl)-2-oxoethyl)-6,7-dihydropyrrolo[3,4-f]isoindole-1,3(2H,5H)-dione], the IC50 in assay [1] (T47D, T47D cell line) lay within 1 to 10 nM. Further, the DC50 in assay [2] is more than 100 nM. Consider `O=C1CC[C@H](N2Cc3c(ccc4c3OC[C@H]3CN(CC5CC6(C5)CN(c5ccc([C@@H]7c8ccc(O)cc8CC[C@@H]7c7ccccc7)cc5)C6)CCN43)C2=O)C(=O)N1` [Compound B351, (S)-3-((R)-7-((2-(4-((1R,2S)-6-hydroxy-2-phenyl-1,2,3,4-tetrahydronaphthalen-1-yl)phenyl)-2-azaspiro[3.3]heptan-6-yl)methyl)-1-oxo-1,3,5,5a,6,7,8,9-octahydro-2H-pyrazino[1′,2′:4,5][1,4]oxazino[2,3-e]isoindol-2-yl)piperidine-2,6-dione], for which the IC50 in assay [1] (T47D) lay within 1 to 10 nM.

On to `O=C1CCC(N2Cc3c(ccc4c3OC[C@H]3CN(C(=O)CN5CCN(c6ccc([C@@H]7c8ccc(O)cc8CC[C@@H]7c7ccccc7)cc6)CC5)CCN43)C2=O)C(=O)N1` (stereo partly drawn) [Compound B249, 3-((R)-7-(2-(4-(4-((1R,2S)-6-hydroxy-2-phenyl-1,2,3,4-tetrahydronaphthalen-1-yl)phenyl)piperazin-1-yl)acetyl)-1-oxo-1,3,5,5a,6,7,8,9-octahydro-2H-pyrazino[1′,2′:4,5][1,4]oxazino[2,3-e]isoindol-2-yl)piperidine-2,6-dione], for which the IC50 in assay [1] (T47D) was less than 1 nM.
